The text below walks through data of patent US20030055263A1, “Carboxylic acid derivatives, medicaments comprising these compounds, their use and processes for their production” (Boehringer Ingelheim Pharma KG, priority 2001, published 2003).

As a reminder, the IC50 is the point on the concentration scale where inhibition reaches its midpoint. High values mean weaker potency in that assay, low ones greater potency in that assay.

For this experiment, the target named is T1, telomerase in nuclear extracts from HeLa cells (Homo sapiens, UniProt O14746).
T1 construct: The activity of telomerase in nuclear extracts from HeLa cells; endogenous in cells; host or cells: HeLa-S3 (ATCC CCL-2.2) nuclear extract
T1 sequence (O14746 whole entry): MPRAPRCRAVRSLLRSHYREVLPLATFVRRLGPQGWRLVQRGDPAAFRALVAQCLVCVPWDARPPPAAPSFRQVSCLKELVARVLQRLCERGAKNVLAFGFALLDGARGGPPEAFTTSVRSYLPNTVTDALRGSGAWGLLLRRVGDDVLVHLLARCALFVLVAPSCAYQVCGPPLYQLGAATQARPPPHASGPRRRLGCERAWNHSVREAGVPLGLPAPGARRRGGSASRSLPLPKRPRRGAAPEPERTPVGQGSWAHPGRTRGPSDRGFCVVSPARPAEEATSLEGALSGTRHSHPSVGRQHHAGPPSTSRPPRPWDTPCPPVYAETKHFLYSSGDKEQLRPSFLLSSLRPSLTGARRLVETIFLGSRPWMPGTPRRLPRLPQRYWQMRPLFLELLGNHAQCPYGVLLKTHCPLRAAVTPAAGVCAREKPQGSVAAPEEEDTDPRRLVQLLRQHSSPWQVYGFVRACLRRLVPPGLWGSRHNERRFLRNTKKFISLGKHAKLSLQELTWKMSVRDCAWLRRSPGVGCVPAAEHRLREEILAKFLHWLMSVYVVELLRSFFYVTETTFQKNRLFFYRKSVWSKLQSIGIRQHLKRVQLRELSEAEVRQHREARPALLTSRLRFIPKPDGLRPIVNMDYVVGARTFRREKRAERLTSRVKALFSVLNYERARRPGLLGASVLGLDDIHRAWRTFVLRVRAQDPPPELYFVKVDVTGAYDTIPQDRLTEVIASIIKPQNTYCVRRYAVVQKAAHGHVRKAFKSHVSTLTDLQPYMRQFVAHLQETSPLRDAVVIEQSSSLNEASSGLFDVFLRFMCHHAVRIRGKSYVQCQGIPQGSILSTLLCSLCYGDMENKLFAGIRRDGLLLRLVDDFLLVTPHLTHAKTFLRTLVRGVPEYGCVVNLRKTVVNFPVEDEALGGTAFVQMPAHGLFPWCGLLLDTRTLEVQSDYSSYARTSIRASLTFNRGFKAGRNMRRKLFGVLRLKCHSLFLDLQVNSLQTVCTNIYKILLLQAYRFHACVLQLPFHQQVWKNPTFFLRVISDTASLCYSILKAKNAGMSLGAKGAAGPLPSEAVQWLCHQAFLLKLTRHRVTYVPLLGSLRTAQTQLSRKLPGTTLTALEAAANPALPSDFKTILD
T1 sequence (O60832 whole entry partner): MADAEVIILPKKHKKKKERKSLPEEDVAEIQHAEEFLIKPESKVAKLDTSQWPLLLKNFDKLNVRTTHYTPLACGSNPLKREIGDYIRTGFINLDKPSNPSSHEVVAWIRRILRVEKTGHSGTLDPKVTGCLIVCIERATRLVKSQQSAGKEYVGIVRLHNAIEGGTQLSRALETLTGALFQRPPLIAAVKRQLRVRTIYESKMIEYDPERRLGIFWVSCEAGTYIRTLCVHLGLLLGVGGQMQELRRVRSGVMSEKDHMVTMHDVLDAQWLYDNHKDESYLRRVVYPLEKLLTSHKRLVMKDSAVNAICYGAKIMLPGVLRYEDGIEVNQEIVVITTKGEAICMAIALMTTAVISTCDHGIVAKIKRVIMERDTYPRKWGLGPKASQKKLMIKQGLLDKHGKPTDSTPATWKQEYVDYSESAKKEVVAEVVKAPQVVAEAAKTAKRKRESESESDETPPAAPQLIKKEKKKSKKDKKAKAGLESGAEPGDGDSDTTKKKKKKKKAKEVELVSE
T1 sequence (Q9NX24 whole entry partner): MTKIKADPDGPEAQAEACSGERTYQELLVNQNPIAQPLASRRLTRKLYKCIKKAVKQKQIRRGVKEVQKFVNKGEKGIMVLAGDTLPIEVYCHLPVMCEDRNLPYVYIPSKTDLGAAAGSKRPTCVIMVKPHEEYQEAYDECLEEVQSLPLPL
T1 sequence (Q9NPE3 whole entry partner): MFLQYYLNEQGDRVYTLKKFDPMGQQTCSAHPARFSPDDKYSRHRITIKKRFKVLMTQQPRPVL
T1 sequence (Q9NY12 whole entry partner): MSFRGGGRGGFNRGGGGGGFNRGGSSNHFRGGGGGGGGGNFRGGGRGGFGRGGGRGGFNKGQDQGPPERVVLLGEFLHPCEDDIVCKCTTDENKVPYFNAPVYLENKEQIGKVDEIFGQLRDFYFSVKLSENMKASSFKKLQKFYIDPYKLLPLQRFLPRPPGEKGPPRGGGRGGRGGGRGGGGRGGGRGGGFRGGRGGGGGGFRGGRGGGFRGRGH
T1 sequence (Q9BUR4 whole entry partner): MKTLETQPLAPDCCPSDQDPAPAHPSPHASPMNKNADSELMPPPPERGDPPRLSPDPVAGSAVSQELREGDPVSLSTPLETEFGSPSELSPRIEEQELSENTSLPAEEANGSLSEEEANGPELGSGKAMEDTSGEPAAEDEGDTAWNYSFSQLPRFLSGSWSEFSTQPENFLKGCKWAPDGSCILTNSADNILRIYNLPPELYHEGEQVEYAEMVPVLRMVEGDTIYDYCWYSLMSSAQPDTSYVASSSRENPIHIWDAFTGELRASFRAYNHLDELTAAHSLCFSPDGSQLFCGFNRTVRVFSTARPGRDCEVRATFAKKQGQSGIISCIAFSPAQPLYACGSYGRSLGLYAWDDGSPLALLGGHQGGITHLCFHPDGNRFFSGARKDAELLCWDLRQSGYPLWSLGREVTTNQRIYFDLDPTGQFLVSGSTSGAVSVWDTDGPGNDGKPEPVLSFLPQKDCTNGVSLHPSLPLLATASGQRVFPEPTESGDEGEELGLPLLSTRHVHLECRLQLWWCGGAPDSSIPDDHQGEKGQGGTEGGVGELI
Nature of the experiment: Telomerase test in nuclear extracts from HeLa cells (method of Morin). Type of experiment: biochemical. The conditions noted are these: HeLa nuclear extract, 120 minutes at 30° C., inhibitor 1 nM to 100 μM, 32P-dGTP incorporation quantified by Phospho-Imager. Here is the method:
1. Preparation of nuclear extracts from HeLa cells: Nuclear extracts were prepared according to Dignam (Dignam et al. in Nucleic Acids Res. 11, 1475-1489 (1983)). All the steps were carried out at 4° C., all the equipment and solutions were pre-cooled to 4° C. At least 1×10^9 HeLa-S3 cells growing in suspension culture (ATCC catalogue number CCL-2.2) were harvested by centrifuging for 5 minutes at 1000×g and washed once with PBS buffer ([…]; 2.7 mM KCl; 8.1 mM Na2HPO4; 1.5 mM KH2PO4) . After the cell volume had been determined, the cells were suspended in 5 times the volume of hypotonic buffer (10 mM HEPES/KOH, pH 7.8; 10 mM KCl; 1.5 mM MgCl2) and then left for 10 minutes at 4° C. After centrifuging for 5 minutes at 1000×g the cell pellet was suspended in twice the volume of hypotonic buffer in the presence of 1 mM DTE and 1 mM PMSF and broken up with a Dounce homogeniser. The homogenised material was made isotonic with 0.1 volume of 10-fold saline buffer (300 mM HEPES/KOH, pH 7.8; 1.4 M KCl; 30 mM MgCl2). The cell nuclei were separated from the ingredients of the cytoplasm by centrifuging and then suspended in twice the volume of nuclear extraction buffer (20 mM HEPES/KOH, pH 7.9; 420 mM KCl; 1.5 mM MgCl2; 0.2 mM EDTA; 0.5 mM DTE; 25% glycerol). The nuclei were broken up using a Dounce homogeniser and incubated for 30 minutes at 4° C. with gentle stirring. Any insoluble ingredients were removed by centrifuging for 30 minutes at 10.000 rpm (SS-34 Rotor). Then the nuclear extract was dialysed for 4-5 hours against AM-100 buffer (20 mM tris/HCl, pH 7.9; 100 mM KCl; 0.1 mM EDTA; 0.5 mM DTE; 20% glycerol). The nuclear extracts obtained were frozen in liquid nitrogen and stored at −80° C.
2. Telomerase test: The activity of telomerase in nuclear extracts from HeLa cells was determined using the method described by Morin (Morin in Cell 59. 521-529 (1989)). […] If the inhibition constant of potential telomerase inhibitors was to be determined, these were also added to the telomerase reaction in a concentration range of from 1 nM to 100 μM. […]
For the molecule `O=C(O)c1ccccc1C(=O)Nc1nc(-c2ccc3ccccc3c2)cs1` [Example 3, 2-[4-(naphthalin-2-yl)-thiazol-2-ylaminocarbonyl]-benzoic acid], the IC50 was less than 5 µM.

As to `O=C(O)C1=C(C(=O)Nc2nc(-c3ccc4ccccc4c3)cs2)CCC1` [Example 35, 2-[4-(naphthalin-2-yl)-thiazol-2-ylaminocarbonyl]-cyclopent-1-ene-carboxylic acid], the IC50 was less than 1 µM.

`O=C(O)c1ccccc1Nc1nccc(-c2ccc3ccccc3c2)n1` [Example 50, 2-[4-(naphthalin-2-yl)-pyrimidin-2-ylamino]-benzoic acid] registered an IC50 of less than 1 µM.
